The test system of data set [1] is COS-7 cells. Kind of data set: Transfection of COS-7 cells (CAT-assay). It is filed as cell-based.
Data set [2] has as its system COS-7 cells. The data set is described as follows: Toxicity study, residual protein content of COS-7 cells.

Each structure is given as a SMILES string.

Consider one molecule from US6726894B1, “Transport vehicles for macromolecules” (priority 1995, dated 2004).

Turning to `CCCCCCCCC=CCCCCCCCCC(CCCCCCCCC=CCCCCCCCC)c1cc[n+](C)cc1.[Cl-]` (stereo not drawn) [SAINT-2, 1-Methyl-4-(19-cis,cis-heptatritiaconta-9,28-dienyl)pyridinium Chloride], the “transfection efficiency with respect to DOTMA/DOPE vesicles” value in data set [1] (COS-7 cells, FIG. 1) is reported as “eight”. The “transfection efficiency with respect to Lipofectine” value in data set [1] (dependent on the cell type) is reported as “at least eight”. Moreover, in data set [2], the “lipid concentration from which decrease of protein content was observed” value was 90 µM and the “toxicity compared with DOTMA-DOPE” value is listed as “clearly less toxic”. The “residual protein content after decrease” value in data set [2] (decrease from 2 mg/ml) is 1.75 mg/mL.
